# Experimental data as given in patent publication US10329282B2, “Rho-associated protein kinase inhibitor, pharmaceutical composition comprising the same, as well as preparation method and use thereof” (Beijing Tide Pharmaceutical Co., Ltd., priority 2017, dated 2019).
# Biological target: ROCK2 (Homo sapiens (Human), UniProt O75116)
# Experiment: ROCK2 kinase IC50 assay (CISBIO HTRF KinEASE-STK S2 kit)
# Type: biochemical
# Conditions: ROCK2 from Carna Biosciences, 2 h incubation at room temperature
# Procedure: The kinase IC50 was determined by a commercialized CISBIO kinase detection kit, HTRF KinEASE-STK S2 kit (62ST2PEC). ROCK2 (01-119) employed in the reaction was purchased from Carna Biosciences.
# Before the assay, the following working solutions as needed were formulated with corresponding reagents according to the instruction of the kinase detection kit: 1×kinase buffer, 5×STK-52 substrate working solution (1.5 μM) and 5×ATP working solution (1.5 μM), 5×ROCK2 kinase working solution, 4×Streptavidin-XL665 working solution, and 4×STK-Ab-Cryptate 2 detection solution. Then the assay was performed according to the following procedure.
# A solution of a compound at a concentration of 10000 nM was prepared with the 1×kinase buffer containing 2.5% DMSO. Gradient dilution of the solution of the compound was performed with the kinase buffer containing DMSO, so as to obtain solutions of a test compound at 9 different concentrations. In addition to wells of test compounds, a positive well (containing all the reagents except the compound) and a negative well (containing all the reagents except the test compound and kinase) were set. Except for the control wells (positive and negative wells), a solution of a test compound (4 μL) was added to each of the reaction wells, and a solution of 2.5% DMSO was added to the control wells. Then the substrate (2 μM, i.e., 2 μL 5×STK-S2 substrate working solution) was added to each of the reaction wells. The 5×ROCK2 kinase working solution (2 μL, containing 1.4 ng ROCK2 kinase) was added to each of the reaction wells except for the negative well, the volume of which was made up with the 1×kinase buffer (2 μL). The 5×ATP working solution (2 μL) was added to each of the reaction wells, and the mixtures were incubated at room temperature for 2 hours. After the kinase reaction was complete, the 4×Streptavidin-XL665 working solution was added to each of the reaction wells, the solutions were mixed, followed by immediate addition of the 4×STK-Ab-Cryptate 2 detection solution (5 μL), and the mixtures were incubated at room temperature for 1 hour. The fluorescence signal was read on ENVISION (Perkinelmer) (excitation wavelength: 320 nm, and emission wavelength: 665 nm and 615 nm). The inhibitory rate in each well was calculated based on the fluorescence intensity value: ER (Emission Ratio)=(fluorescence intensity at 665 nm/fluorescence intensity at 615 nm); inhibitory rate=(ERpositive−ERtest compound) (ERpositive−ERnegative)*100%. Curves were plotted and fitted to obtain the median inhibitory concentration (IC50) of each teat compound with the PRISM 5.0 software.
# Sequence of ROCK2 (O75116 1-553): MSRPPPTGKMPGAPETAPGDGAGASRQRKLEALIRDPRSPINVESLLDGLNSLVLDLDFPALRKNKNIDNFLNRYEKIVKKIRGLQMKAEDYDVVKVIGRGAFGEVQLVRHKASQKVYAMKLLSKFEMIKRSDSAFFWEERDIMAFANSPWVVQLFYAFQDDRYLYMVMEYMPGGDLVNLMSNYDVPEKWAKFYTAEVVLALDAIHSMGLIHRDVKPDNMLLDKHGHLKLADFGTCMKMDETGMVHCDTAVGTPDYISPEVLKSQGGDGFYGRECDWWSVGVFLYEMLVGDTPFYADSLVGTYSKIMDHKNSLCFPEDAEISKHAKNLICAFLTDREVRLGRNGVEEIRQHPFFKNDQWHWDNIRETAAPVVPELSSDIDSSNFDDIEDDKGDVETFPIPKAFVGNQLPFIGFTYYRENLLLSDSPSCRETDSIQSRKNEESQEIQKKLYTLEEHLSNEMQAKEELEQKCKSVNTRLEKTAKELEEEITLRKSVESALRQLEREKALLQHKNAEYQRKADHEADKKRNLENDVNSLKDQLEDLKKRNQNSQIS
row,Compound,IC50 [nM]
1,"CNC(=O)c1cc2ccc(-c3nccc(Nc4ccc5[nH]ncc5c4)n3)cc2s1 [TDI01109, 6-(4-((1H-indazol-5-yl)amino)pyrimidin-2-yl)-N-methylbenzo[b]thiophene-2-carboxamide]",447
2,"CN1CCC(NC(=O)c2cc3ccc(-c4nccc(Nc5ccc(-c6cn[nH]c6)cc5)n4)cc3[nH]2)C1 (centres unmarked) [TDI01339, 6-(4-((4-(1H-pyrazol-4-yl)phenyl)amino)pyrimidin-2-yl)-N-(1-methylpyrrolidin-3-yl)-1H-indole-2-carboxamide]",147
3,CN(C(=O)c1cc2ccc(-c3nccc(Nc4ccc(-c5cn[nH]c5)cc4)n3)cc2[nH]1)C1CC(O)C1 (centres unmarked) [TDI01418],272
4,"O=C(Nc1ccncc1Cl)c1cc2ccc(-c3nccc(Nc4ccc(-c5cn[nH]c5)cc4)n3)cc2[nH]1 [TDI01354, 6-(4-((4-(1H-pyrazol-4-yl)phenyl)amino)pyrimidin-2-yl)-N-(3-chloropyridin-4-yl)-1H-indole-2-carboxamide]",254
5,"O=C(c1cc2ccc(-c3nccc(Nc4ccc(-c5cn[nH]c5)cc4)n3)cc2[nH]1)N1CCOCC1 [TDI01331, (6-(4-((4-(1H-pyrazol-4-yl)phenyl)amino)pyrimidin-2-yl)-1H-indol-2-yl)(morpholino)methanone]",260
6,O=C(c1cc2ccc(-c3nccc(Nc4ccc(-c5cn[nH]c5)cc4)n3)cc2[nH]1)N1CC(C(F)(F)F)C1 [TDI01433],13
7,"CN(C(=O)c1cc2ccc(-c3nccc(Nc4ccc(-c5cn[nH]c5)cc4)n3)cc2[nH]1)C(CO)CO [TDI01344-2A, 6-(4-((4-(1H-pyrazol-4-yl)phenyl)amino)pyrimidin-2-yl)-N-(1,3-dihydroxypropan-2-yl)-N-methyl-1H-indole-2-carboxamide]",107
8,"CN1CCC(NC(=O)c2cc3ccc(-c4nccc(Nc5ccc6[nH]ncc6c5)n4)cc3s2)CC1 [TDI01114, 6-(4-((1H-indazol-5-yl)amino)pyrimidin-2-yl)-N-(1-methylpiperidin-4-yl)benzo[b]thiophene-2-carboxamide]",157
9,"CC(C)NC(=O)c1cc2ccc(-c3nccc(Nc4ccc5[nH]ncc5c4)n3)cc2[nH]1 [TDI01108, 6-(4-((1H-indazol-5-yl)amino)pyrimidin-2-yl)-N-isopropyl-1H-indole-2-carboxamide]",22
10,"O=C(NC1CC1)c1cc2ccc(-c3nccc(Nc4ccc5[nH]ncc5c4)n3)cc2[nH]1 [TDI01151, 6-(4-((1H-indazol-5-yl)amino)pyrimidin-2-yl)-N-cyclopropyl-1H-indole-2-carboxamide]",45
11,"CN1CCN(C(=O)c2cc3ccc(-c4nccc(Nc5ccc(-c6cn[nH]c6)cc5)n4)cc3[nH]2)CC1 [TDI01343, (6-(4-((4-(1H-pyrazol-4-yl)phenyl)amino)pyrimidin-2-yl)-1H-indol-2-yl)(4-methylpiperazin-1-yl)methanone]",436
12,"CC(C)NC(=O)c1cc2ccc(-c3nc(Nc4ccc5[nH]ncc5c4)c4scnc4n3)cc2[nH]1 [TDI01149, 6-(7-((1H-indazol-5-yl)amino)thiazolo[4,5-d]pyrimidin-5-yl)-N-isopropyl-1H-indole-2-carboxamide]",100
13,CN(CCC#N)C(=O)c1cc2ccc(-c3nccc(Nc4ccc(-c5cn[nH]c5)cc4)n3)cc2[nH]1 [TDI01442],305
14,"CN1CCN(CC(=O)n2ccc3ccc(-c4nccc(Nc5ccc6[nH]ncc6c5)n4)cc32)CC1 [TDI01230, 1-(6-(4-((1H-indazol-5-yl)amino)pyrimidin-2-yl)-1H-indol-1-yl)-2-(4-methylpiperazin-1-yl)ethan-1-one]",109
15,"COc1ccc(NC(=O)c2cc3ccc(-c4nccc(Nc5ccc6[nH]ncc6c5)n4)cc3[nH]2)cn1 [TDI01315, 6-(4-((1H-indazol-5-yl)amino)pyrimidin-2-yl)-N-(6-methoxypyridin-3-yl)-1H-indole-2-carboxamide]",126
16,"CC(C)NC(=O)C1Cc2ccc(-c3nccc(Nc4ccc5[nH]ncc5c4)n3)cc2N1 (centres unmarked) [TDI01292, 6-(4-((1H-indazol-5-yl)amino)pyrimidin-2-yl)-N-isopropylindoline-2-carboxamide]",242
17,"O=C(Nc1cccnc1)c1cc2ccc(-c3nccc(Nc4ccc(-c5cn[nH]c5)cc4)n3)cc2[nH]1 [TDI01397, 6-(4-((4-(1H-pyrazol-4-yl)phenyl)amino)pyrimidin-2-yl)-N-(pyridin-3-yl)-1H-indole-2-carboxamide]",120
18,"CC(C)NC(=O)c1cc2ccc(-c3nc(Nc4ccc5[nH]ncc5c4)c4ccccc4n3)cc2[nH]1 [TDI01128, 6-(4-((1H-indazol-5-yl)amino)quinazolin-2-yl)-N-isopropyl-1H-indole-2-carboxamide]",145
19,"CC(C)NC(=O)c1ccc2ccc(-c3nccc(Nc4ccc5[nH]ncc5c4)n3)cc2n1 [TDI01327, 7-(4-((1H-indazol-5-yl)amino)pyrimidin-2-yl)-N-isopropylquinoline-2-carboxamide]",472

# The remaining compounds from weak to strong by IC50, led by results:
row,IC50 [nM],Compound
1,465,"O=C(Nc1ccccn1)c1cc2ccc(-c3nccc(Nc4ccc5[nH]ncc5c4)n3)cc2[nH]1 [TDI01311, 6-(4-((1H-indazol-5-yl)amino)pyrimidin-2-yl)-N-(pyridin-2-yl)-1H-indole-2-carboxamide]"
2,411,"CNC(=O)c1cc2ccc(-c3nc(Nc4ccc(-c5cn[nH]c5)cc4)c4sccc4n3)cc2[nH]1 [TDI01379, 6-(4-((4-(1H-pyrazol-4-yl)phenyl)amino)thieno[3,2-d]pyrimidin-2-yl)-N-methyl-1H-indole-2-carboxamide]"
3,400,CCNC(=O)c1cc2cc(-c3nccc(Nc4ccc(-c5cn[nH]c5)cc4)n3)ccc2[nH]1 [TDI01408]
4,382,"O=C(Nc1ccccc1)c1cc2ccc(-c3nccc(Nc4ccc5[nH]ncc5c4)n3)cc2[nH]1 [TDI01215, 6-(4-((1H-indazol-5-yl)amino)pyrimidin-2-yl)-N-phenyl-1H-indole-2-carboxamide]"
5,289,"CN(C(=O)c1cc2ccc(-c3nccc(Nc4ccc(-c5cn[nH]c5)cc4)n3)cc2[nH]1)c1ccncc1 [TDI01421, 6-(4-((4-(1H-pyrazol-4-yl)phenyl)amino)pyrimidin-2-yl)-N-methyl-N-(pyridin-4-yl)-1H-indole-2-carboxamide]"
6,257,"CCN(CC)C(=O)c1cc2ccc(-c3nccc(Nc4ccc(-c5cn[nH]c5)cc4)n3)cc2[nH]1 [TDI01332, 6-(4-((4-(1H-pyrazol-4-yl)phenyl)amino)pyrimidin-2-yl)-N,N-diethyl-1H-indole-2-carboxamide]"
7,141,"C[C@@H](CN)NC(=O)c1cc2ccc(-c3nccc(Nc4ccc(-c5cn[nH]c5)cc4)n3)cc2[nH]1 [TDI01856, (S)-6-(4-((4-(1H-pyrazol-4-yl)phenyl)amino)pyrimidin-2-yl)-N-(1-aminopropan-2-yl)-1H-indole-2-carboxamide]"
8,104,"O=C(Nc1ccncc1)c1cc2ccc(-c3nccc(Nc4ccc(-c5cn[nH]c5)cc4)n3)cc2[nH]1 [TDI01363, 6-(4-((4-(1H-pyrazol-4-yl)phenyl)amino)pyrimidin-2-yl)-N-(pyridin-4-yl)-1H-indole-2-carboxamide]"
9,87,"CN1CCC(n2cc(NC(=O)c3cc4ccc(-c5nccc(Nc6ccc7[nH]ncc7c6)n5)cc4[nH]3)cn2)CC1 [TDI01316, 6-(4-((1H-indazol-5-yl)amino)pyrimidin-2-yl)-N-(1-(1-methylpiperidin-4-yl)-1H-pyrazol-4-yl)-1H-indole-2-carboxamide]"
10,42,"O=C(NC1CCOC1)c1cc2ccc(-c3nccc(Nc4ccc5[nH]ncc5c4)n3)cc2s1 (centres unmarked) [TDI01113, 6-(4-((1H-indazol-5-yl)amino)pyrimidin-2-yl)-N-(tetrahydrofuran-3-yl)benzo[b]thiophene-2-carboxamide]"
11,32,"O=C(NC1CCOCC1)c1cc2ccc(-c3nccc(Nc4ccc5[nH]ncc5c4)n3)cc2[nH]1 [TDI01291, 6-(4-((1H-indazol-5-yl)amino)pyrimidin-2-yl)-N-(tetrahydro-2H-pyran-4-yl)-1H-indole-2-carboxamide]"
12,25,"O=C(Nc1cnoc1)c1cc2ccc(-c3nccc(Nc4ccc5[nH]ncc5c4)n3)cc2[nH]1 [TDI01156, 6-(4-((1H-indazol-5-yl)amino)pyrimidin-2-yl)-N-(isoxazol-4-yl)-1H-indole-2-carboxamide]"
13,23,"CC(C)(C)OC(=O)n1cc(NC(=O)c2cc3ccc(-c4nccc(Nc5ccc6[nH]ncc6c5)n4)cc3[nH]2)cn1 [TDI01200, tert-butyl 4-(6-(4-((1H-indazol-5-yl)amino)pyrimidin-2-yl)-1H-indole-2-carboxamido)-1H-pyrazole-1-carboxylate]"
